Structures are written as SMILES.

One data set has as its system Splnocyte. To be noted: cited from earlier work.
The subject of another data set is senescent human cells. Put plainly: Viability of doxorubicin-induced senescent human cells (CellTiter-Glo), Example 11. The class given is cell-based. (Cellular ATP, detected with luciferase, serves as a proxy for viable cell number.)
Data set [1] relates to HMGN1 secreted from senescent A549 cells. Description: HMGN1 secretion (ELISA) from senescent A549 cancer cells, Example 12.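 Further: A549 cells made senescent by doxorubicin exposure, with DMSO-treated cells serving as the non-senescent control.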 The format is cell-based, human. To be noted: senescent untreated = 100%; 30 μM; 90 μM for LX-305, 905, 1302, 1601, 1603, 2003, 2702, 2901, 3106; 270 μM for LX-1103, 2005, 2007. On the technique in general: ELISA stands for enzyme-linked immunosorbent assay.
Protocol: Cells were treated with doxorubicin or control (DMSO) and cultured.

Another data set has as its system senescent A549 cells. Description: Viability of senescent A549 cancer cells (CellTiter-Glo), Example 12. The class given is cell-based, human. To be noted: Homo sapiens, A549, 0 μM = 100, read-out: Survival.
A further data set deals with senescent foreskin cells. Put plainly: Survival of senescent human cells treated with supernatant (secreted fluid) from death-induced cells, Example 13. The format is cell-based. To be noted: senescent treated cells, 3 days; for viability at 30 µM: Homo sapiens, 72 h.
Data set [2] has as its system proliferating foreskin cells. Put plainly: Survival of proliferating human cells treated with supernatant (secreted fluid) from death-induced cells, Example 13. The class given is cell-based. To be noted: 3 days; for viability at 30 µM: Homo sapiens, 72 h. On the procedure: (§1) After 3 days, cell viability was measured using CellTiter-Glo Luminescent Cell Viability Assay (Promega) or light microscopy.
After treating cells with the test compound at a high concentration that induces the death of most cells in both non-senescence-induced and senescence-induced cells, the cells were washed three times with PBS to remove the test compound, and replaced with fresh medium and cultured for an additional 3 hours at the time when the compound has entered into the cell but has not yet induced cell death (approximately 1 to 3 hours after compound treatment). During this additional culture, by checking with an optical microscope, etc., the medium supernatants containing secreted fluid from normally proliferating and senescent cells in which cell death was induced were obtained. The obtained medium supernatant was replaced with the medium of normally proliferating and senescent cells, respectively, and cell survival rate was measured after 3 days.

In data set [3] the test system is naturally aged C57BL6J mice. Description: Geriatric depression and anxiety in aged mice, Example 21-8. The format is in vivo, mouse. To be noted: aged mice. An excerpt:
The amount of senescent-associated secretory factor (SASP) in serum and tissues collected from mice of Examples 21-5 and 21-6 was reduced by treatment with LX-5701, LX-2101, or LX-2102. It was confirmed that removing senescent cells, which increase with aging in mice, and effectively reducing the amount of senescent-associated secretory factor (SASP) can improve symptoms of geriatric depression and anxiety.

Data set [4] has as its system obesity-induced aged C57BL6J mice. Description: Anxiety, depression, lethargy (open field test) in obesity-aged mice, Example 23-4, Table 44. The class given is in vivo, mouse. To be noted: obesity-aged mice. The protocol: 15-week-old male C57BL6J mice (The Jackson Laboratory) were induced to obesity by a high-fat diet using the same method as in Example 9-1 WO2023-085787 A1. After acclimation to the experimental environment for one week, the mice were randomly assigned to experimental and control groups. […] LX-3002 was mixed in distilled water with 4% DMSO, 30% PEG300, and 5% Tween80 and administered orally at a concentration of 10 mg/kg daily for 21 days. LX-5701 was mixed in PBS and administered orally at a concentration of 360 mg/kg daily for 21 days. LX-6807 was mixed in saline and administered intraperitoneally at a concentration of 1 mg/kg daily for 21 days. The control group received only the solution in the same volume. After the end of drug administration, the methods described in each example below were performed.
It was determined that anxiety and depression caused by obesity are not causally related to increased body weight, but rather are caused by the accumulation of senescent cells. Accordingly, an activity assessment (open field test) was performed using the same method as in Example 7-7 of WO2023-085787 A1 to analyze lethargy caused by anxiety and depression caused by obesity in mice. The table below quantitatively represents activity, a criterion for assessing lethargy due to anxiety and depression, under conditions in which aging was induced by obesity and the test compound was not administered or was administered. The activity assessment after obesity-induced aging was calculated as 100% and compared with the activity assessment after test compound treatment.

Data set [5] relates to non-senescent proliferating human cells. Put plainly: Effect on non-senescent (proliferating) human cells. The class given is cell-based. To be noted: normally proliferating foreskin cells; 30 μM, 3 days.
Source text: Based on the results of Example 10 of WO2023-085787 A1, compounds that induce the death of senescent cells through a mechanism similar to LX-112, unlike existing senescent cell removers such as ABT-263, were screened based on HMGN1. […] The following test compounds were synthesized by and purchased from Medchemexpress, Selleckchem, Cayman, Medkoo, Sigma, Molport, Enzo, TCI, Santa Cruz, REONSIMI, Abcam, Alfa Aesar, APExBIO, BOCSCI, Merck, Thermo Fisher Scientific, R&D Systems, ChemFaces, Aobious, etc. […] In cells in which senescence was not induced by treatment with the control group (DMSO), the amount of HMGN1 above the effective value (sensitivity: 35 pg/ml), analysis limit, was not detected in both untreated and treated conditions with the test compound. On the other hand, in cells where senescence was induced by treatment with doxorubicin, the amount of HMGN1 was measured at 80 to 90 pg/ml. […]
as §1
Using the same method as Example 11, compounds that induce senescent cell death through a mechanism similar to that of LX-112 (ethaselen (1,2-[bis(1,2-benzisoselenazolone-3 (2H)-ketone)]ethane)) were screened based on HMGN1 and others. […] On the other hand, in cells senescent with doxorubicin, an amount of HMGN1 of […] was measured. […]

[6] abbreviates: supernatant from death-induced proliferating cells.
Setting [7] is: supernatant from death-induced senescent cells.

On to `CC(O)[C@@H]1NC(=O)COCCOCCNC(=O)[C@H](C(C)O)NC(=O)N[C@@H](C(C)O)C(=O)NNC1=O` (stereo partly drawn) [Cyclic compound 1], for which, in the data set on Splnocyte, the Splnocyte proliferation recovery result is recorded as “Splnocyte proliferation recovery 91%”.
`CC(C)c1onc(C(=O)N2CCN(C(c3ccccc3)c3ccccc3)CC2)c1[N+](=O)[O-]` [LX-401]: the viability at 1.1 µM in the data set with senescent human cells (Homo sapiens, 1.1 μM, 0 μM = 100, read-out: Survival) came to 20.4%; in the data set on senescent A549 cells (1.1 μM) it was 89.7%. In addition, the viability at […] with senescent human cells (Homo sapiens, 3.3 μM, 0 μM = 100, read-out: Survival) came to 12.4%; with senescent A549 cells (3.3 μM), 68.6%. Further, the viability at 10 µM in the data set on senescent human cells (Homo sapiens, 10 μM, 0 μM = 100, read-out: Survival) was determined as 10.6%; in the data set on senescent A549 cells (10 μM) it was 42.1%. In addition, the viability at 30 µM came to 7.8% with senescent human cells (Homo sapiens, 30 μM, 0 μM = 100, read-out: Survival); 16.8% with senescent A549 cells (30 μM); 48.2% in the data set with senescent foreskin cells (setting [6]); 42.2% in the data set with senescent foreskin cells (setting [7]); 88.1% in [2] (setting [6]); 95.1% in data set [2] (setting [7]). Further, the “induced death of cells” value is “induced the death of most cells” in the data set on senescent human cells (senescent foreskin cells, 30 μM, 3 days) and “induced the death of most cells” in [5]. The same molecule displayed an HMGN1 in [1] of 277%. The Survival is on record as 101.1 (±5.5) % in the data set on senescent foreskin cells (supernatant from No Cells) and 97.9 (±7.2) % in [2] (supernatant from No Cells). Further, in data set [3], the “amount of SASP, p16, SA-β-gal, lipofuscin” value is listed as “reduced”. Further, the “symptoms of geriatric depression and anxiety” value in data set [3] is on record as “improved”. For the same molecule, the geriatric depression result in data set [4] is on record as “similarly improving geriatric depression”.

(Values after patent US20260306460A1, “COMPOSITION FOR REMOVING AND INHIBITING SENESCENT CELLS, AND USES THEREOF” (LIFECEUTIX CO., LTD., priority 2023, published 2026).)
